# Laboratory results reported in ChEMBL document CHEMBL3108750, “Solution structure of a sponge-derived cystine knot peptide and its notable stability” (J Nat Prod, 2014).
# Positions of bridges follow the written chain, without caps; N, C: chain ends. Residues, ends and D or L forms follow the SMILES beside them.
# Legend:
# [1] = Cytotoxicity against human HK2 cells assessed as cell viability up to 50 uM after 48 hrs by MTT assay; format: cell-based; settings: hk-2, 48 h
# [2] = Cytotoxicity against human MCF10A cells assessed as cell viability up to 50 uM after 48 hrs by MTT assay; format: cell-based; settings: mcf-10a
smiles,measurement,setting,value
"CC[C@H](C)[C@H](NC(=O)[C@@H](NC(=O)[C@H](Cc1ccc(O)cc1)NC(=O)[C@@H]1CSSC[C@@H]2NC(=O)[C@@H]3CCCN3C(=O)[C@H](CC(N)=O)NC(=O)[C@H](Cc3ccccc3)NC(=O)[C@H](CCC(=O)O)NC(=O)[C@H](C(C)C)NC(=O)[C@H](CC(=O)O)NC(=O)[C@@H]3CSSC[C@H](NC(=O)[C@H]([C@@H](C)O)NC(=O)[C@H](CC(C)C)NC(=O)[C@@H]4CCCN4C(=O)[C@@H]4CCCN4C(=O)[C@H](CSSC[C@H](N)C(=O)N4CCC[C@H]4C(=O)NCC(=O)N[C@@H](CCC(=O)O)C(=O)NCC(=O)N[C@@H](CCC(=O)O)C(=O)N[C@@H](CCC(N)=O)C(=O)N3)NC2=O)C(=O)N[C@@H]([C@@H](C)CC)C(=O)N2CCC[C@H]2C(=O)NCC(=O)N[C@@H](CC(=O)O)C(=O)N2CCC[C@H]2C(=O)N[C@@H](Cc2ccc(O)cc2)C(=O)NCC(=O)N[C@@H]([C@@H](C)CC)C(=O)N1)[C@@H](C)CC)C(=O)O (H-CPGEGEQCDVEFNPCCPPLTCIPGDPYGICYII-OH; disulfide 1-16, 8-21, 15-30)",Activity,[1],Non-toxic
same,Activity,[2],Non-toxic
